From ChEMBL document CHEMBL1201862, “PubChem BioAssay data set” (2004)
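Values below derive from 48-hour exposures of cells grown in 96-well plates, with endpoints linearly interpolated between the two concentrations bracketing the appropriate inhibition level. Abbreviation: GI50, concentration required for 50% inhibition of growth.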 Calls of active or inactive are those of the source. Rule as the data show it: active = GI50 up to about 1.1 µM and inactive = higher.

Assays:
Assay in all cases: inhibition of tumour cell growth, NCI panel, 48 h
HCT-116 = tested on: HCT-116
SF-539 = tested on: SF-539
SNB-75 = tested on: SNB-75
SK-OV-3 = tested on: SK-OV-3
OVCAR-8 = tested on: OVCAR-8
CCRF-CEM = tested on: CCRF-CEM
UACC-257 = tested on: UACC-257
UACC-62 = tested on: UACC-62
HT-29 = tested on: HT-29
MDA-MB-435 = tested on: MDA-MB-435
A498 = tested on: A498
U-251 = tested on: U-251
MDA-MB-231 = tested on: MDA-MB-231
NCI-H226 = tested on: NCI-H226
SK-MEL-28 = tested on: SK-MEL-28
MCF7 = tested on: MCF7
T47D = tested on: T47D
NCI-H23 = tested on: NCI-H23
EKVX = tested on: EKVX
NCI-H460 = tested on: NCI-H460

Structure (SMILES) | GI50 (HCT-116) | GI50 (SF-539) | GI50 (SNB-75) | GI50 (SK-OV-3) | GI50 (OVCAR-8) | GI50 (CCRF-CEM) | GI50 (UACC-257) | GI50 (UACC-62) | GI50 (HT-29) | GI50 (MDA-MB-435) | GI50 (A498) | GI50 (U-251) | GI50 (MDA-MB-231) | GI50 (NCI-H226) | GI50 (SK-MEL-28) | GI50 (MCF7) | GI50 (T47D) | GI50 (NCI-H23) | GI50 (EKVX) | GI50 (NCI-H460)
O=C(O)CCc1nc2cc3ccccc3cc2[nH]c1=O | > 100 µM (inactive) | > 100 µM (inactive) | > 100 µM (inactive) | > 100 µM (inactive) | > 100 µM (inactive) | > 100 µM (inactive) | > 100 µM (inactive) | > 100 µM (inactive) | > 100 µM (inactive) | > 100 µM (inactive) | > 100 µM (inactive) | > 100 µM (inactive) | > 100 µM (inactive) | > 100 µM (inactive) | > 100 µM (inactive) | 65.6 µM (inactive) | > 100 µM (inactive) | > 100 µM (inactive) | > 100 µM (inactive) | > 100 µM (inactive)
CN(C)CCOc1ccc(I)cc1Cc1ccccc1 | 10.6 µM (inactive) | 13.8 µM (inactive) | 1.52 µM (inactive) | 18.6 µM (inactive) | 16 µM (inactive) | 4.85 µM (inactive) | 15.2 µM (inactive) | 3.28 µM (inactive) | 4.36 µM (inactive) | 4.27 µM (inactive) | 13.9 µM (inactive) | 12.4 µM (inactive) | 3.89 µM (inactive) | 15.9 µM (inactive) | 4.74 µM (inactive) | 13 µM (inactive) | 3.81 µM (inactive) | 4.05 µM (inactive) | 14.5 µM (inactive) | 11.9 µM (inactive)
CC(C)(C)NC(=O)[C@H]1CC[C@H]2[C@@H]3CC=C4NC(=O)CC[C@]4(C)[C@H]3CC[C@]12C | > 100 µM (inactive) | > 100 µM (inactive) | 22.6 µM (inactive) | > 100 µM (inactive) | 70.3 µM (inactive) | > 100 µM (inactive) | 69.3 µM (inactive) | > 100 µM (inactive) | > 100 µM (inactive) | > 100 µM (inactive) | > 100 µM (inactive) | > 100 µM (inactive) | 29.3 µM (inactive) | > 100 µM (inactive) | > 100 µM (inactive) | 32.4 µM (inactive) | > 100 µM (inactive) | 52 µM (inactive) | > 100 µM (inactive) | > 100 µM (inactive)
COC(=O)C(Cc1ccccc1)NP(=O)(O)OCC1OC(n2cc(F)c(=O)[nH]c2=O)CC1O (stereo not given) | 5.53 µM (inactive) | 0.991 µM (active) | > 31.9 µM (inactive) | 61.4 µM (inactive) | 9.12 µM (inactive) | 1.1 µM (active) | > 56 µM (inactive) | 7 µM (inactive) | 11.2 µM (inactive) | > 86.3 µM (inactive) | 7.38 µM (inactive) | 8.99 µM (inactive) | > 100 µM (inactive) | > 33.4 µM (inactive) | > 67 µM (inactive) | 0.317 µM (active) | 12.6 µM (inactive) | 10.9 µM (inactive) | > 100 µM (inactive) | 0.236 µM (active)
Cc1ccc(/N=N/C(=N\c2ccc(Cl)cc2)c2ccc(N(CCC#N)CCC#N)cc2)cc1 | 49 µM (inactive) | 47.4 µM (inactive) | 60.3 µM (inactive) | > 100 µM (inactive) | 63.8 µM (inactive) | 21.6 µM (inactive) | 12.4 µM (inactive) | 11.8 µM (inactive) | 71.4 µM (inactive) | 19.1 µM (inactive) | > 100 µM (inactive) | 25.2 µM (inactive) | 25.8 µM (inactive) | > 100 µM (inactive) | 85.5 µM (inactive) | 21.6 µM (inactive) | 12.5 µM (inactive) | 48.6 µM (inactive) | 22.9 µM (inactive) | 18.1 µM (inactive)
NS(=O)(=O)c1ccc(/N=N/c2cccnc2O)cc1 | > 100 µM (inactive) | > 100 µM (inactive) | > 100 µM (inactive) | > 100 µM (inactive) | > 100 µM (inactive) | 20.7 µM (inactive) | > 100 µM (inactive) | > 100 µM (inactive) | > 100 µM (inactive) | > 100 µM (inactive) | > 100 µM (inactive) | > 100 µM (inactive) | > 100 µM (inactive) | > 100 µM (inactive) | > 100 µM (inactive) | > 100 µM (inactive) | > 100 µM (inactive) | > 100 µM (inactive) | > 100 µM (inactive) | > 100 µM (inactive)
O=P1(O)c2ccccc2Nc2cc(C(F)(F)F)ccc21 | > 100 µM (inactive) | > 100 µM (inactive) | > 100 µM (inactive) | > 100 µM (inactive) | > 100 µM (inactive) | > 100 µM (inactive) | > 100 µM (inactive) | > 100 µM (inactive) | > 100 µM (inactive) | > 100 µM (inactive) | > 100 µM (inactive) | > 100 µM (inactive) | > 100 µM (inactive) | > 100 µM (inactive) | > 100 µM (inactive) | > 100 µM (inactive) | > 100 µM (inactive) | > 100 µM (inactive) | > 100 µM (inactive) | > 100 µM (inactive)
O=C1c2c(ccc3c2CCCC3)CC12Cc1ccccc1C2 | 5.43 µM (inactive) | 6.31 µM (inactive) | 20.4 µM (inactive) | 30.6 µM (inactive) | 9.84 µM (inactive) | 10.8 µM (inactive) | 16.6 µM (inactive) | 13.5 µM (inactive) | 5.96 µM (inactive) | 9.38 µM (inactive) | 11.1 µM (inactive) | 27.2 µM (inactive) | 18.1 µM (inactive) | 9.53 µM (inactive) | 14.4 µM (inactive) | 17 µM (inactive) | 17.9 µM (inactive) | 10.3 µM (inactive) | 20 µM (inactive) | 4.93 µM (inactive)
COc1ccc(C2=Nn3c(nc4sc(C)c(C)c4c3=O)SC2)cc1 | > 100 µM (inactive) | > 100 µM (inactive) | > 100 µM (inactive) | > 100 µM (inactive) | > 100 µM (inactive) | > 100 µM (inactive) | > 100 µM (inactive) | > 100 µM (inactive) | > 100 µM (inactive) | > 100 µM (inactive) | > 100 µM (inactive) | > 100 µM (inactive) | > 100 µM (inactive) | > 100 µM (inactive) | > 100 µM (inactive) | > 100 µM (inactive) | > 100 µM (inactive) | > 100 µM (inactive) | > 100 µM (inactive) | > 100 µM (inactive)
COc1cc([C@@H]2c3cc4c(cc3[C@@H](/N=C/c3ccc(C(=O)O[C@H]5C[C@H]6OC[C@@]6(OC(C)=O)[C@H]6[C@H](OC(=O)c7ccccc7)[C@]7(O)C[C@H](OC(=O)[C@H](OC(=O)c8ccc(/C=N/[C@@H]9c%10cc%11c(cc%10[C@@H](c%10cc(OC)c(O)c(OC)c%10)[C@H]%10C(=O)OC[C@@H]%109)OCO%11)cc8)[C@@H](NC(=O)c8ccccc8)c8ccccc8)C(C)=C([C@@H](OC(C)=O)C(=O)[C@]56C)C7(C)C)cc3)C3COC(=O)C32)OCO4)cc(C)c1O (stereo not given in full) | 9.08 µM (inactive) | 7.23 µM (inactive) | 4.25 µM (inactive) | 9.2 µM (inactive) | 17.9 µM (inactive) | 30 µM (inactive) | 26.2 µM (inactive) | 6.32 µM (inactive) | 10.9 µM (inactive) | 2.33 µM (inactive) | 5.16 µM (inactive) | 13.3 µM (inactive) | > 25.2 µM (inactive) | 10.9 µM (inactive) | > 18.1 µM (inactive) | 7.6 µM (inactive) | > 50 µM (inactive) | 17.2 µM (inactive) | 14.5 µM (inactive) | 15.3 µM (inactive)
